{"source": "patent US20210386985A1", "about": "“BIODEGRADABLE MICRONEEDLES FOR TRANSDERMAL THERAPEUTIC AGENT DELIVERY” (THE REGENTS OF THE UNIVERSITY OF CALIFORNIA, priority 2018, published 2021)", "test_system": "melanoma cell line A375", "assay": "In vitro anticancer efficacy of the released DOX (MTT and Live/Dead assay)", "type": "cell-based, human", "conditions": "A375 cells, microneedles incubated 1 h", "protocol": "A human melanoma cell line A375 was used as the model to investigate the anticancer efficiency of DOX released from the microneedles 14. After incubating microneedles 14 containing 10 μg of DOX with the plated cells for 1 h, the viability of A375 cells was examined using an MTT assay after 24 h. […] The DOX-induced cell death was further investigated by a Live/Dead assay, where live cells metabolized calcein AM into the green fluorescent calcein, and dead cells with compromised membrane integrity were stained by the red fluorescent dye EthD-1. […] The possible reason was that microneedles 14 with more crosslinking time would release less DOX at the same releasing time (1 h).\nIn vitro anticancer efficacy of the released DOX: In vitro cytotoxicity of the released DOX was evaluated using the melanoma cell line A375 as the model. Specifically, A375 cells were plated in 24-well plates (1×10^6 per well) and incubated for 24 h. Microneedles 14 with different crosslinking degrees were added and incubated for 1 h. After that, the microneedles 14 were removed from the wells, and A375 cells were incubated for another 24 h. The effects of DOX on the metabolic activity of A375 cells in vitro were tested with a rapid colorimetric MTT assay. The absorbance of the wells was read at 570 nm with 630 nm as the reference. […]", "data": [{"smiles": "COc1cccc2c1C(=O)c1c(O)c3c(c(O)c1C2=O)C[C@@](O)(C(=O)CO)C[C@@H]3O[C@H]1C[C@H](N)[C@H](O)[C@H](C)O1", "note": "[DOX, doxorubicin]", "values": [{"measurement": "cell death (Live/Dead assay)", "result": "cell death was observed"}]}]}
